Reference: patent publication US20260097111A1, “ETHER LIPIDS FOR HYPERACTIVATION OF MAMMALIAN DENDRITIC CELLS” (priority 2022, published 2026)

Experiments:
Format in all cases: cell-based
[1] = test system: human monocyte-derived dendritic cells (moDCs); assay: IL-1β secretion by human moDCs treated with lipid and R848; settings: human moDCs primed with R848 for 3 hours, then nigericin; FIG. 2B
Experimental: (§1) Human monocytes were isolated from Leukopaks purchased from Miltenyi using the StraightFrom Leukopak CD14 microbead kit (Miltenyi). Isolations were completed following manufacturer's instructions. Monocytes were then aliquoted and frozen in fetal bovine serum containing 10% dimethyl sulfoxide. For studies with monocyte-derived dendritic cell (moDC) cultures, monocytes were thawed and cultured in RPMI medium containing 10% FBS, 50 units/mL penicillin, […] streptomycin, 2 mM L-glutamine, 1 mM sodium pyruvate, […] beta-mercaptoethanol, 10 mM HEPES, and Gibco MEM non-essential amino acids (R10 media). To differentiate monocytes into moDCs, recombinant human GM-CSF (50 ng/mL) and IL-4 (25 ng/mL) were added to R10 media. Cells were cultured for 6 days with GM-CSF and IL-4, with an additional cell feeding with R10 containing GM-CSF and IL-4 on day 3.
Six days after differentiation, moDC were collected and counted. Cells were plated into 96-well flat-bottom plates at 1×10^5 cells/well. Cells were treated with or without 1 μg/mL R848 (final) and with or without a hyperactivating lipid (or vehicle control). In some experiments, MCC950, an inhibitor of the NLRP3 inflammasome, was added at a final concentration of 10 uM. In some experiments, nigericin, which causes NLRP3 inflammasome activation and subsequent pyroptosis, was used as a positive control at 20 uM. Cells and stimuli totaled a final volume of […].
Lipid stocks were then further diluted in PBS to treat cells.
(§2) After an overnight incubation, cells and culture supernatant were used for downstream readouts. One hundred and fifty microliters of cell supernatant were collected. Viability was measured using the CellTiter-Glo assay (Promega) which measures ATP content from cells. Fifty microliters of CellTiter-Glo reagent were added to 50 μL of cells. Luminescence was quantified on a SpectraMax m5e plate reader using an integration time of 500 milliseconds. Viability data were set relative to control conditions where cells were treated with only R848. To measure IL-1β secretion, the human IL-1β Lumit kit (Promega) was used to assay cell culture supernatant. Culture supernatant samples were incubated with enzyme-linked antibodies in a 384-well plate for 1 hour before addition of luminescent substrate. Samples were measured for luminescence with an integration time of 500 milliseconds. IL-1β concentrations of samples was determined by interpolation from a standard curve using 4-parameter logistic regression analysis. Studies were performed on three different human donor samples, and each biological condition was tested in triplicate. Graphed data represent means from each donor.
as §1, with “Human moDC Production. Human” for “Human”, “(Miltenyi) according to the” for “(Miltenyi). Isolations were completed following”, “To differentiate” for “For studies with”, “pyruvate, and” for “pyruvate,”, “beta-mercaptoethanol” for “beta-mercaptoethanol, 10 mM HEPES, and Gibco MEM non-essential amino acids”
Hyperactivating Lipid Formulation—Compound 10. Lipid stocks were formulated at 200 μg/mL lipid in 5% Kolliphor P407 (KP407) in PBS.

human moDCs [2] = assay: Cell viability of human moDCs (CellTiter-Glo); settings: human
Experimental: as §2
Measurement of Cytokine Secretion and Cell Viability. After an overnight incubation, cells and culture supernatant were used for downstream readouts. One hundred and fifty microliters of cell culture supernatant were collected. Viability was measured using the CellTiter-Glo assay (Promega) which measures ATP content from cells. Fifty microliters of CellTiter-Glo reagent were added to 50 μL of cells. Luminescence was quantified on a SpectraMax m5e plate reader using an integration time of 500 milliseconds. Viability data were set relative to control conditions where cells were treated with only R848. To measure IL-1β secretion, the human IL-1β Lumit kit (Promega) was used. […] Samples were measured for luminescence with an integration time of 500 milliseconds. IL-1β concentrations of samples was determined by interpolation from a standard curve using 4-parameter logistic regression analysis. […]

human moDCs [3] = assay: moDC viability by LDH release and CellTiter-Glo 2.0
Experimental: Monocyte Isolation, Storage, and Differentiation into moDC.
CellTiter-Glo 2.0 Cell Viability Assay. As an additional method to measure cell viability, CellTiter-Glo 2.0 Cell Viability Assay kit from Promega was used. CellTiter-Glo 2.0 reagent was used according to instructions of the manufacturer. Briefly, frozen reagent was thawed at 4° C. and aliquoted. Aliquots were stored at 4° C. in the dark. After removing 150 μL of the cell culture volume for use in other assays, cells were lysed with 50 μL/well CellTiter-Glo reagent by pipetting up and down. After incubating in the dark at RT for 10 min, samples were transferred to white opaque 96-well plates. Luminescence was measured for 500 ms/well using a Spectramax M3 plate reader. Luminescence values were normalized to the mean values of control samples and multiplied 100-fold to report values as percentage viability.

Q: Which results are given for `CO[C@@H]1C[C@@H](C[C@H]2CC[C@H](C)[C@H]([C@@H](C)C(=O)O)O2)O[C@]2(O[C@](C)([C@H]3CC[C@@](C)([C@@H]4O[C@@H]([C@H]5O[C@@](O)(CO)[C@H](C)C[C@@H]5C)C[C@@H]4C)O3)C[C@H]2C)[C@@H]1C` [nigericin]?
A: IL-1β secretion [1]: IL-1β was produced; decrease in cell viability (human moDCs [2]): approximately 50%; cell viability (CellTiter-Glo) (human moDCs [3]): below 2%; cell viability (LDH release assay) (human moDCs [3]): below 75%
